In patent publication US7655665B2, “Nitromethylene derivatives and their use” (East China University of Science and Technology, priority 2004, dated 2010):

What was measured:
Nilaparvata lugens = experiment: Insecticidal activity against Nilaparvata lugens (planthopper) by spraying; format: in vivo; settings: 500 ppm; spraying 2 ml; counted after 24 hours
Procedure: (§1) Test on the insecticidal activity of Compound Nos. 1-227
Planthopper, which belongs to Homoptera and has a piercing-sucking mouthpart, is a common insect for agricultural plant. Nilaparvata lugens was tested by the way of spraying.
Test method: the test compound was exactly formulated into a solution having a certain concentration and clean water was used as a blank control. Each process was repeated for 3 tumblers (3 times). 2 ml of solution was sprayed uniformly to each tumbler by a mini manual sprayer. 10 Nilaparvata lugens were introduced to every sink 6 hours before spraying. Three series of experiments were conducted. The number of killed Nilaparvata lugens was counted after 24 hours to calculate the mortality.

Aphis craccivoral = experiment: Insecticidal activity against Aphis craccivoral by immersing (dipping aphids on bean sprout); format: in vivo; settings: 500 ppm; immersing (dipped 5 seconds); counted after 24 hours; 23° C.
Procedure: as §1
Aphis, which belongs to Homoptera and has a piercing-sucking mouthpart, is a common insect for agricultural plant. Aphis craccivoral was tested by the way of immersing.
Test method: exactly weighed various samples were independently added to N,N-dimethylformamide to form a 10 g/L stock solution. The mixture was diluted with 0.2 mL/L aqueous Triton X-100 solution to a concentration of 500 ug/mL. After stably sucking on bean sprout, the adult aphis without wings together with bean sprout was dipped into 500 ug/mL dilution, taken out after 5 seconds, and the excess dilution was sucked out with bibulous paper and the adult aphis without wings was incubated in clean vessel at a constant temperature of 23° C. Each concentration was repeated for 3 times and the control group contained 0.2 mL/L aqueous Triton X-100 solution. The number of killed aphis was counted after 24 hours to calculate the mortality.

Compound | mortality (%) (500 ppm) Nilaparvata lugens (Nilaparvata lugens) | mortality (%) (500 ppm) Aphis (Aphis craccivoral)
CCC(C)OC1CCC([N+](=O)[O-])=C2N(Cc3cnc(Cl)s3)CCN21 (mixture of isomers) [Compound 33] | 56% | 24%
CCCC(C)OC1CCC([N+](=O)[O-])=C2N(Cc3cnc(Cl)s3)CCN21 (mixture of isomers) [Compound 38] | 67% | 35%
CC(C)(C)COC1CCC([N+](=O)[O-])=C2N(Cc3ccc(Cl)nc3)CCN21 (racemic) [Compound 17] | 100% | 100%
O=[N+]([O-])C1=C2N(Cc3ccc(Cl)nc3)CCN2C(OC2CCCCC2)CC1 (racemic) [Compound 18] | 67% | 23%
C=CCOC1CCC([N+](=O)[O-])=C2N(Cc3ccc(Cl)nc3)CCN21 (racemic) [Compound 19] | 78% | 35%
C#CCOC1CCC([N+](=O)[O-])=C2N(Cc3ccc(Cl)nc3)CCN21 (racemic) [Compound 20] | 56% | 39%
COCCOC1CCC([N+](=O)[O-])=C2N(Cc3ccc(Cl)nc3)CCN21 (racemic) [Compound 21] | 100% | 100%
CCOCCOC1CCC([N+](=O)[O-])=C2N(Cc3ccc(Cl)nc3)CCN21 (racemic) [Compound 22] | 100% | 100%
O=[N+]([O-])C1=C2N(Cc3cnc(Cl)s3)CCN2C(O)CC1 (racemic) [Compound 23] | 100% | 87%
COC1CCC([N+](=O)[O-])=C2N(Cc3cnc(Cl)s3)CCN21 (racemic) [Compound 24] | 100% | 100%
CCOC1CCC([N+](=O)[O-])=C2N(Cc3cnc(Cl)s3)CCN21 (racemic) [Compound 25] | 100% | 100%
O=[N+]([O-])C1=C2N(Cc3cnc(Cl)s3)CCN2C(OCCCl)CC1 (racemic) [Compound 26] | 64% | 26%
O=[N+]([O-])C1=C2N(Cc3cnc(Cl)s3)CCN2C(OCC(F)(F)F)CC1 (racemic) [Compound 27] | 100% | 100%
CCCOC1CCC([N+](=O)[O-])=C2N(Cc3cnc(Cl)s3)CCN21 (racemic) [Compound 28] | 100% | 100%
CC(C)OC1CCC([N+](=O)[O-])=C2N(Cc3cnc(Cl)s3)CCN21 (racemic) [Compound 29] | 100% | 100%
O=[N+]([O-])C1=C2N(Cc3cnc(Cl)s3)CCN2C(OC(C(F)(F)F)C(F)(F)F)CC1 (racemic) [Compound 30] | 98% | 58%
CCCCOC1CCC([N+](=O)[O-])=C2N(Cc3cnc(Cl)s3)CCN21 (racemic) [Compound 31] | 35% | 56%
CC(C)COC1CCC([N+](=O)[O-])=C2N(Cc3cnc(Cl)s3)CCN21 (racemic) [Compound 32] | 23% | 37%
CC(C)(C)OC1CCC([N+](=O)[O-])=C2N(Cc3cnc(Cl)s3)CCN21 (racemic) [Compound 34] | 100% | 100%
CC(C)(OC1CCC([N+](=O)[O-])=C2N(Cc3cnc(Cl)s3)CCN21)C(Cl)(Cl)Cl (racemic) [Compound 35] | 100% | 98%
CCCCCOC1CCC([N+](=O)[O-])=C2N(Cc3cnc(Cl)s3)CCN21 (racemic) [Compound 36] | 57% | 34%
